Reference: patent publication US11959086B2, “Dual transit peptides for targeting polypeptides” (BASF AGRO B.V., priority 2016, dated 2024)
pIC50: −log10 of the molar value.

Key:
[1] = system: Arabidopsis plants, construct hemF_tpsAMATU_PPO2 (SEQ ID NO 116); assay: Tolerance of transgenic T1 Arabidopsis plants to herbicides, greenhouse (Tolerance Factor); assay type: in vivo, Arabidopsis thaliana
[2] = system: transgenic Arabidopsis thaliana, transgene SEQ ID NO 118; assay: Herbicide injury evaluation of Arabidopsis plants, greenhouse; assay type: in vivo; conditions: scale 0-100
[3] = system: Arabidopsis plants, construct hemG_tpFNR (SEQ ID NO 117); assay: Tolerance of transgenic T1 Arabidopsis plants to herbicides, greenhouse (Tolerance Factor); assay type: in vivo, Arabidopsis thaliana
[4] = system: Arabidopsis plants, construct hemF_tplAMATU_PPO2 (SEQ ID NO 115); assay: as above; assay type: in vivo, Arabidopsis thaliana
[5] = system: Arabidopsis plants, construct RHOMA_PPO_F420V_tpFNR (SEQ ID NO 124); assay: as above; assay type: in vivo, Arabidopsis thaliana
[6] = system: transgenic Arabidopsis thaliana, transgene SEQ ID NO 119; assay: Herbicide injury evaluation of Arabidopsis plants, greenhouse; assay type: in vivo; conditions: Table 3, scale 0-100
[7] = system: Arabidopsis plants, construct RHOMA_PPO_wt_tpAMATU_PPO2 (SEQ ID NO 127); assay: Tolerance of transgenic T1 Arabidopsis plants to herbicides, greenhouse (Tolerance Factor); assay type: in vivo, Arabidopsis thaliana
[8] = system: Arabidopsis plants, construct hemG_tpsAMATU_PPO2 (SEQ ID NO 119); assay: as above; assay type: in vivo, Arabidopsis thaliana
[9] = system: transgenic Arabidopsis thaliana, transgene SEQ ID NO 121; assay: Herbicide injury evaluation of Arabidopsis plants, greenhouse; assay type: in vivo; conditions: Table 3, scale 0-100
[10] = system: Wildtype/non-transgenic Arabidopsis thaliana; assay: as above; assay type: in vivo; conditions: scale 0-100
[11] = system: Arabidopsis plants, construct RHOMA_PPO_wt_tpFNR (SEQ ID NO 123); assay: Tolerance of transgenic T1 Arabidopsis plants to herbicides, greenhouse (Tolerance Factor); assay type: in vivo, Arabidopsis thaliana
[12] = system: Arabidopsis plants, construct CHLSP_PPO_wt_tpFNR (SEQ ID NO 128); assay: as above; assay type: in vivo, Arabidopsis thaliana
[13] = system: transgenic Arabidopsis thaliana, transgene SEQ ID NO 128; assay: Herbicide injury evaluation of Arabidopsis plants, greenhouse; assay type: in vivo; conditions: Table 3, scale 0-100
[14] = system: Arabidopsis plants, construct OPITE_PPO_wt_tpFNR (SEQ ID NO 121); assay: Tolerance of transgenic T1 Arabidopsis plants to herbicides, greenhouse (Tolerance Factor); assay type: in vivo, Arabidopsis thaliana
[15] = system: Arabidopsis plants, construct hemF_tpFNR (SEQ ID NO 114); assay: as above; assay type: in vivo, Arabidopsis thaliana
[16] = system: transgenic Arabidopsis thaliana, transgene SEQ ID NO 120; assay: Herbicide injury evaluation of Arabidopsis plants, greenhouse; assay type: in vivo; conditions: Table 4, scale 0-100
[17] = system: empty vector-transformed leaf discs; assay: PSII yield inhibition in tobacco leaf discs (chlorophyll fluorescence, imaging PAM); assay type: cell-based; conditions: Nicotiana benthamiana, 48 h, read-out: IC50 of PSII yield inhibition
[18] = system: transgenic Arabidopsis thaliana, transgene SEQ ID NO 117; assay: Herbicide injury evaluation of Arabidopsis plants, greenhouse; assay type: in vivo; conditions: Table 3, scale 0-100
[19] = system: Arabidopsis plants, construct hemG_tplAMATU_PPO2 (SEQ ID NO 118); assay: Tolerance of transgenic T1 Arabidopsis plants to herbicides, greenhouse (Tolerance Factor); assay type: in vivo, Arabidopsis thaliana

In the case of `CC(C)N(C)S(=O)(=O)NC(=O)c1cc(-n2c(=O)cc(C(F)(F)F)n(C)c2=O)c(F)cc1Cl` [Saflufenacil, saflufenacil], the “Tolerance Factor” value [1] was 1, the “Herbicide injury evaluation 14 days after herbicide treatment” value (shortened to “Herbicide injury evaluation 14 days”) ([2]; Table 3, SEQ ID NO 118 Q, 50 g ai/ha + 1% MSO) was 55 and the “Herbicide injury evaluation 14 days” value ([2]; Table 3, SEQ ID NO 118 Q, 150 g ai/ha + 1% MSO) was 58. The “Herbicide injury evaluation 14 days” value ([2]; Table 3, SEQ ID NO 118 Q, 300 g ai/ha + 1% MSO) was 68, the “Herbicide injury evaluation 14 days” value ([2]; Table 3, SEQ ID NO 118 R, 50 g ai/ha + 1% MSO) was 5 and the “Herbicide injury evaluation 14 days” value ([2]; Table 3, SEQ ID NO 118 R, 150 g ai/ha + 1% MSO) was 65. For the same molecule, the “Herbicide injury evaluation 14 days” value ([2]; Table 3, SEQ ID NO 118 R, 300 g ai/ha + 1% MSO) was 48, the “Herbicide injury evaluation 14 days” value ([2]; Table 4, SEQ ID NO 118 Q, 50 g ai/ha + 1% MSO) was 63 and the “Herbicide injury evaluation 14 days” value ([2]; Table 4, SEQ ID NO 118 Q, 150 g ai/ha + 1% MSO) was 63. For the same molecule, the “Herbicide injury evaluation 14 days” value ([2]; Table 4, SEQ ID NO 118 Q, 300 g ai/ha + 1% MSO) was 65, the “Herbicide injury evaluation 14 days” value ([2]; Table 4, SEQ ID NO 118 R, 50 g ai/ha + 1% MSO) was 38 and the “Herbicide injury evaluation 14 days” value ([2]; Table 4, SEQ ID NO 118 R, 150 g ai/ha + 1% MSO) was 45. For the same molecule, the “Herbicide injury evaluation 14 days” value ([2]; Table 4, SEQ ID NO 118 R, 300 g ai/ha + 1% MSO) was 60, the “Tolerance Factor” value [3] was 332 and the “Tolerance Factor” value [4] was 1. For the same molecule, the “Tolerance Factor” value [5] was 1, the “Herbicide injury evaluation 14 days” value ([6]; SEQ ID NO 119 A, 50 g ai/ha + 1% MSO) was 100 and the “Herbicide injury evaluation 14 days” value ([6]; SEQ ID NO 119 A, 150 g ai/ha + 1% MSO) was 100. The “Herbicide injury evaluation 14 days” value ([6]; SEQ ID NO 119 A, 300 g ai/ha + 1% MSO) was 100, the “Herbicide injury evaluation 14 days” value ([6]; SEQ ID NO 119 B, 50 g ai/ha + 1% MSO) was 100 and the “Herbicide injury evaluation 14 days” value ([6]; SEQ ID NO 119 B, 150 g ai/ha + 1% MSO) was 100. The “Herbicide injury evaluation 14 days” value ([6]; SEQ ID NO 119 B, 300 g ai/ha + 1% MSO) was 100, the “Tolerance Factor” value [7] was 1 and the “Tolerance Factor” value [8] was 1. The “Herbicide injury evaluation 14 days” value ([9]; SEQ ID NO 121 G, 50 g ai/ha + 1% MSO) was 100, the “Herbicide injury evaluation 14 days” value ([9]; SEQ ID NO 121 G, 150 g ai/ha + 1% MSO) was 100 and the “Herbicide injury evaluation 14 days” value ([9]; SEQ ID NO 121 G, 300 g ai/ha + 1% MSO) was 100. The “Herbicide injury evaluation 14 days” value ([9]; SEQ ID NO 121 H, 50 g ai/ha + 1% MSO) was 100, the “Herbicide injury evaluation 14 days” value ([9]; SEQ ID NO 121 H, 150 g ai/ha + 1% MSO) was 100 and the “Herbicide injury evaluation 14 days” value ([9]; SEQ ID NO 121 H, 300 g ai/ha + 1% MSO) was 100. The “Herbicide injury evaluation 14 days” value ([10]; Table 3, 50 g ai/ha + 1% MSO) was 100, the “Herbicide injury evaluation 14 days” value ([10]; Table 3, 150 g ai/ha + 1% MSO) was 100 and the “Herbicide injury evaluation 14 days” value ([10]; Table 3, 300 g ai/ha + 1% MSO) was 100. For the same molecule, the “Herbicide injury evaluation 14 days” value ([10]; Table 4, 50 g ai/ha + 1% MSO) was 100, the “Herbicide injury evaluation 14 days” value ([10]; Table 4, 150 g ai/ha + 1% MSO) was 100 and the “Herbicide injury evaluation 14 days” value ([10]; Table 4, 300 g ai/ha + 1% MSO) was 100. For the same molecule, the “Tolerance Factor” value [11] was 1, the “Tolerance Factor” value [12] was 640 and the “Herbicide injury evaluation 14 days” value ([13]; SEQ ID NO 128 D, 50 g ai/ha + 1% MSO) was 93. For the same molecule, the “Herbicide injury evaluation 14 days” value ([13]; SEQ ID NO 128 D, 150 g ai/ha + 1% MSO) was 97, the “Herbicide injury evaluation 14 days” value ([13]; SEQ ID NO 128 D, 300 g ai/ha + 1% MSO) was 97 and the “Herbicide injury evaluation 14 days” value ([13]; SEQ ID NO 128 E, 50 g ai/ha + 1% MSO) was 97. For the same molecule, the “Herbicide injury evaluation 14 days” value ([13]; SEQ ID NO 128 E, 150 g ai/ha + 1% MSO) was 97, the “Herbicide injury evaluation 14 days” value ([13]; SEQ ID NO 128 E, 300 g ai/ha + 1% MSO) was 97 and the “Tolerance Factor” value [14] was 14. The “Tolerance Factor” value [15] was 1, the “Herbicide injury evaluation 14 days” value ([16]; SEQ ID NO 120 J, 50 g ai/ha + 1% MSO) was 80 and the “Herbicide injury evaluation 14 days” value ([16]; SEQ ID NO 120 J, 150 g ai/ha + 1% MSO) was 83. For the same molecule, the “Herbicide injury evaluation 14 days” value ([16]; SEQ ID NO 120 J, 300 g ai/ha + 1% MSO) was 85, the “Herbicide injury evaluation 14 days” value ([16]; SEQ ID NO 120 M, 50 g ai/ha + 1% MSO) was 95 and the “Herbicide injury evaluation 14 days” value ([16]; SEQ ID NO 120 M, 150 g ai/ha + 1% MSO) was 93. The “Herbicide injury evaluation 14 days” value ([16]; SEQ ID NO 120 M, 300 g ai/ha + 1% MSO) was 88, the pIC50 [17] was 6.96 and the “Herbicide injury evaluation 14 days” value ([18]; SEQ ID NO 117 C, 50 g ai/ha + 1% MSO) was 100. The “Herbicide injury evaluation 14 days” value ([18]; SEQ ID NO 117 C, 150 g ai/ha + 1% MSO) was 98, the “Herbicide injury evaluation 14 days” value ([18]; SEQ ID NO 117 C, 300 g ai/ha + 1% MSO) was 97 and the “Herbicide injury evaluation 14 days” value ([18]; SEQ ID NO 117 I, 50 g ai/ha + 1% MSO) was 94. For the same molecule, the “Herbicide injury evaluation 14 days” value ([18]; SEQ ID NO 117 I, 150 g ai/ha + 1% MSO) was 99, the “Herbicide injury evaluation 14 days” value ([18]; SEQ ID NO 117 I, 300 g ai/ha + 1% MSO) was 95 and the “Tolerance Factor” value [19] was 2200.
